Measured values from US10227345B2, “Compounds and methods for inhibiting fascin” (Cornell University, priority 2014, dated 2019).

Legend:
[1] = test system: MDA-MB-231 human breast tumor cells; assay: Boyden-chamber cell migration assay; format: cell-based; conditions: migration 6 h
Description: Certain tumor cells with fascin expression are listed below.
Exemplifying procedure: MDA-MB-231 cells (5×10^4) or 4T1 Cells (1×10^5) were suspended in 100 μl starvation medium and added to the upper chamber of an insert (6.5 mm diameter, 8 μm pore size; Becton Dickson). The insert was placed in a 24-well plate containing 700 μL starvation medium with or without 10% FBS. […] Migration assays were performed for 6 h and cells are fixed with 3.7% formaldehyde. Cells were stained with crystal violet staining solution, and cells on the upper side of the insert were removed with a cotton swab. Three randomly selected fields (×10 objectives) on the lower side of the insert were photographed, and the migrated cells were counted. Migration was expressed as average number of migrated cells in a field.

human fascin 1 = biological target: T1, human fascin 1 (Homo sapiens, UniProt Q16658); assay: Fascin inhibition (actin bundling) assay, image-based; format: biochemical; conditions: in the presence of 50 μm of the compound relative to bundle activity when the compound was not present; read-out: Inhibition (percentage reduction of bundle activity)
T1 construct: GST (N, cleaved yes); made in house; host or cells: Escherichia coli BL21/DE3 (pGEX4T-fascin 1 plasmid)
Method in brief: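 GST-tagged human fascin 1 from E. coli, thrombin-cleaved, was preincubated with compounds for 30 min, then polymerized actin was added; compounds were at 30 μM final. Bundles captured on poly-D-lysine plates were imaged, and background-corrected bundle length per well was computed, with DMSO-only wells as negative controls.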

Structure (SMILES) | IC50 [1] | inhibition at 50 µM (human fascin 1)
O=C(Nc1nn(Cc2ccc(Cl)cc2)c2ccccc12)c1ccno1 [Compound 66, N-(1-(4-chlorobenzyl)-1H-indazol-3-yl)isoxazole-5-carboxamide] | 161 µM | 100%
Cc1nocc1C(=O)Nc1nn(Cc2ccc(C(F)(F)F)cc2)c2ccccc12 [Compound 35, 3-methyl-N-(1-(4-(trifluoromethyl)benzyl)-1H-indazol-3-yl)isoxazole-4-carboxamide] | 18 µM | 100%
O=C(Nc1nn(Cc2ccc(C(F)(F)F)cc2)c2ccccc12)c1sccc1Cl [Compound 41, 3-chloro-N-(1-(4-(trifluoromethyl)benzyl)-1H-indazol-3-yl)thiophene-2-carboxamide] |  | < 10%
O=C(Nc1nn(Cc2ccc(C(F)(F)F)nc2)c2ccccc12)c1ccoc1 [Compound 92, N-(1-((6-(trifluoromethyl)pyridine-3-yl)methyl)-1H-indazol-3-yl)furan-3-carboxamide] |  | < 10%
O=C(Nc1nn(Cc2ccc(C(F)(F)F)cc2)c2ccccc12)c1ccno1 [Compound 25, N-(1-(4-(trifluoromethyl)benzyl)-1H-indazol-3-yl)isoxazole-5-carboxamide] | 54 µM | 100%
O=C(Nc1nn(Cc2ccc(C(F)(F)F)cc2)c2ccccc12)c1ccccn1 [Compound 55, N-(1-(4-(trifluoromethyl)benzyl)-1H-indazol-3-yl)picolinamide] |  | < 10%
Cc1csc(C(=O)Nc2nn(Cc3ccc(C(F)(F)F)cc3)c3ccccc23)n1 [Compound 11, 4-methyl-N-(1-(4-(trifluoromethyl)benzyl)-1H-indazol-3-yl)thiazole-2-carboxamide] |  | < 10%
FC(F)(F)c1ccc(Cn2nc(-c3cccc4ccccc34)c3ccccc32)cc1 [Compound 145, 3-(naphthalen-1-yl)-1-(4-(trifluoromethyl)benzyl)-1H-indazole] |  | 10%
O=C(Nc1nn(Cc2ccc(C(F)(F)F)cc2)c2ccccc12)c1sccc1F [Compound 37, 3-fluoro-N-(1-(4-(trifluoromethyl)benzyl)-1H-indazol-3-yl)thiophene-2-carboxamide] |  | < 10%
Cc1ncoc1C(=O)Nc1nn(Cc2ccc(C(F)(F)F)cc2)c2ccccc12 [Compound 34, 4-methyl-N-(1-(4-(trifluoromethyl)benzyl)-1H-indazol-3-yl)oxazole-5-carboxamide] |  | 80%
O=C(Nc1nn(Cc2ccc(C(F)(F)F)cc2)c2ccccc12)c1cccnn1 [Compound 49, N-(1-(4-(trifluoromethyl)benzyl)-1H-indazol-3-yl)pyridazine-3-carboxamide] | 13 µM | 100%
O=C(Nc1nn(Cc2ccc(C(F)(F)F)cc2)c2ccccc12)c1ccccc1Br [Compound 46, 2-bromo-N-(1-(4-(trifluoromethyl)benzyl)-1H-indazol-3-yl)benzamide] |  | < 10%
Cc1ccc2c(NC(=O)c3conc3C)nn(Cc3ccc(C(F)(F)F)cc3)c2n1 [Compound 133, 3-methyl-N-(6-methyl-1-(4-(trifluoromethyl)benzyl)-1H-pyrazolo[3,4-b]pyridin-3-yl)isoxazole-4-carboxamide] |  | < 10%
Cc1ocnc1C(=O)Nc1nn(Cc2ccc(C(F)(F)F)cc2)c2ccccc12 [Compound 31, 5-methyl-N-(1-(4-(trifluoromethyl)benzyl)-1H-indazol-3-yl)oxazole-4-carboxamide] |  | 60%
Nc1nn(Cc2ccc(C(F)(F)F)cc2)c2ccc(C(F)(F)F)cc12 [Compound 122, 5-(trifluoromethyl)-1-(4-(trifluoromethyl)benzyl)-1H-indazol-3-amine] |  | < 10%
Cc1occc1C(=O)Nc1nn(Cc2ccc(F)cc2)c2ccccc12 [Compound 74, N-(1-(4-fluorobenzyl)-1H-indazol-3-yl)-2-methylfuran-3-carboxamide] |  | < 10%
CCCC(=O)Nc1nn(Cc2ccc(C(F)(F)F)cc2)c2cncc(Cl)c12 [Compound 153, N-(4-chloro-1-(4-(trifluoromethyl)benzyl)-1H-pyrazolo[3,4-c]pyridin-3-yl)butyramide] |  | 10%
FC(F)(F)c1ccc(Cn2nc(-c3ccoc3)c3ccccc32)cc1 [Compound 147, 3-(furan-3-yl)-1-(4-(trifluoromethyl)benzyl)-1H-indazole] |  | 10%
O=C(Nc1nn(Cc2ccc(C(F)(F)F)cc2)c2ccccc12)c1cccc(Cl)n1 [Compound 8, 6-chloro-N-(1-(4-(trifluoromethyl)benzyl)-1H-indazol-3-yl)picolinamide] |  | < 10%
O=C(Nc1nn(Cc2ccc(C(F)(F)F)cc2)c2ccccc12)c1cscc1Br [Compound 42, 4-bromo-N-(1-(4-(trifluoromethyl)benzyl)-1H-indazol-3-yl)thiophene-3-carboxamide] |  | < 10%

Structure (SMILES) | IC50 [1] | inhibition at 50 µM (human fascin 1)
Cc1ccc2c(NC(=O)c3scnc3C)nn(Cc3ccc(C(F)(F)F)cc3)c2n1 [Compound 135, 4-methyl-N-(6-methyl-1-(4-(trifluoromethyl)benzyl)-1H-pyrazolo[3,4-b]pyridin-3-yl)thiazole-5-carboxamide] |  | < 10%
O=C(Nc1cn(Cc2ccc(C(F)(F)F)cc2)c2ccccc12)c1ccoc1 [Compound 105, N-(1-(4-(trifluoromethyl)benzyl)-1H-indol-3-yl)furan-3-carboxamide] |  | < 10%
FC(F)(F)c1ccc(CNc2nn(Cc3ccc(C(F)(F)F)cc3)c3ccccc23)cc1 [Compound 22, N,1-bis(4-(trifluoromethyl)benzyl)-1H-indazol-3-amine] |  | < 10%
Cc1nocc1C(=O)Nc1nn(Cc2ccc(Cl)cc2)c2ccccc12 [Compound 65, N-(1-(4-chlorobenzyl)-1H-indazol-3-yl)-3-methylisoxazole-4-carboxamide] | 64 µM | 90%
O=C(Nc1nn(Cc2ccc(C(F)(F)F)nc2)c2ccccc12)c1cccnn1 [Compound 96, N-(1-((6-(trifluoromethyl)pyridin-3-yl)methyl)-1H-indazol-3-yl)pyridazine-3-carboxamide] |  | < 10%
O=C(Nc1nn(Cc2ccc(C(F)(F)F)cc2)c2ccccc12)c1ccccc1F [Compound 12, 2-fluoro-N-(1-(4-(trifluoromethyl)benzyl)-1H-indazol-3-yl)benzamide] |  | < 10%
O=C(Nc1nn(Cc2ccc(C(F)(F)F)cc2)c2ccccc12)c1ccc(Cl)cc1 [Compound 6, 4-chloro-N-(1-(4-(trifluoromethyl)benzyl)-1H-indazol-3-yl)benzamide] |  | 10%
Cc1occc1-c1nn(Cc2ccc(C(F)(F)F)cc2)c2ccccc12 [Compound 148, 3-(2-methylfuran-3-yl)-1-(4-(trifluoromethyl)benzyl)-1H-indazole] |  | 10%
Cc1occc1C(=O)Nc1nn(Cc2ccc(C(F)(F)F)cc2)c2cc(C(F)(F)F)ccc12 [Compound 109] |  | < 10%
Cc1ccc2c(NC(=O)c3ccoc3C)nn(Cc3ccc(C(F)(F)F)cc3)c2n1 [Compound 134, 2-methyl-N-(6-methyl-1-(4-(trifluoromethyl)benzyl)-1H-pyrazolo[3,4-b]pyridin-3-yl)furan-3-carboxamide] |  | < 10%
FC(F)(F)c1ccc(Cn2nc(-c3ccccc3)c3ccccc32)cc1 [Compound 144, 3-Phenyl-1-(4-(trifluoromethyl)benzyl)-1H-indazole] |  | 10%
Nc1nn(Cc2ccc(C(F)(F)F)cc2)c2c(C(F)(F)F)cccc12 [Compound 111, 7-(trifluoromethyl)-1-(4-(trifluoromethyl)benzyl)-1H-indazol-3-amine] |  | < 10%
O=C(Nc1nn(Cc2ccc(C(F)(F)F)cc2)c2ccccc12)c1ccccc1Cl [Compound 5, 2-chloro-N-(1-(4-(trifluoromethyl)benzyl)-1H-indazol-3-yl)benzamide] |  | 50%
Nc1nn(Cc2ccc(C(F)(F)F)nc2)c2ccccc12 [Compound 91, 1-((6-(trifluoromethyl)pyridine-3-yl)methyl)-1H-indazol-3-amine] |  | < 10%
O=C(Nc1nn(Cc2ccc(F)cc2)c2ccccc12)c1ccno1 [Compound 73, N-(1-(4-fluorobenzyl)-1H-indazol-3-yl)isoxazole-5-carboxamide] |  | 50%
O=C(Nc1nn(Cc2ccc(F)cc2)c2ccccc12)c1ccoc1 [Compound 71, N-(1-(4-fluorobenzyl)-1H-indazol-3-yl)furan-3-carboxamide] |  | < 10%
Nc1nn(Cc2ccc(Cl)cc2)c2ccccc12 [Compound 63, 1-(4-chlorobenzyl)-1H-indazol-3-amine] |  | < 10%
Cc1ccoc1C(=O)Nc1nn(Cc2ccc(C(F)(F)F)cc2)c2ccccc12 [Compound 29, 3-methyl-N-(1-(4-(trifluoromethyl)benzyl)-1H-indazol-3-yl)furan-2-carboxamide] |  | < 10%
O=C(Nc1nn(Cc2ccc(C(F)(F)F)cc2)c2ccccc12)c1cnco1 [Compound 40, N-(1-(4-(trifluoromethyl)benzyl)-1H-indazol-3-yl)oxazole-5-carboxamide] |  | 100%
